Results reported in ChEMBL document CHEMBL5150049, “The discovery of (1R, 3R)-1-(3-chloro-5-fluorophenyl)-3-(hydroxymethyl)-1,2,3,4-tetrahydroisoquinoline-6-carbonitrile, a potent and selective agonist of human transient receptor potential cation channel subfamily m member 5 (TRPM5) and evaluation of as a potential gastrointestinal prokinetic agent” (Bioorg Med Chem, 2022).
Converted amounts (≈) assume the structure as drawn. Blank lines part the entries; values can stand above or below the compound they belong to.

Experiments:
[1] = Half-life in C57BL/6 mouse at 100 mg/kg, po; type: ADME, organism-based; details: in vivo
[2] = Metabolic stability in human liver microsomes assessed as half life; type: ADME, Microsome
[3] = target: T1, Transient receptor potential cation channel subfamily M member 5 (Homo sapiens, UniProt Q9NZQ8); assay: Agonist activity at human TRPM5 expressed in CHO-K1 cells assessed as increase in relative fluorescence unit measured for 2 mins by FLIPR based membrane potential assay; type: cell-based
T1 sequence (Q9NZQ8 whole entry): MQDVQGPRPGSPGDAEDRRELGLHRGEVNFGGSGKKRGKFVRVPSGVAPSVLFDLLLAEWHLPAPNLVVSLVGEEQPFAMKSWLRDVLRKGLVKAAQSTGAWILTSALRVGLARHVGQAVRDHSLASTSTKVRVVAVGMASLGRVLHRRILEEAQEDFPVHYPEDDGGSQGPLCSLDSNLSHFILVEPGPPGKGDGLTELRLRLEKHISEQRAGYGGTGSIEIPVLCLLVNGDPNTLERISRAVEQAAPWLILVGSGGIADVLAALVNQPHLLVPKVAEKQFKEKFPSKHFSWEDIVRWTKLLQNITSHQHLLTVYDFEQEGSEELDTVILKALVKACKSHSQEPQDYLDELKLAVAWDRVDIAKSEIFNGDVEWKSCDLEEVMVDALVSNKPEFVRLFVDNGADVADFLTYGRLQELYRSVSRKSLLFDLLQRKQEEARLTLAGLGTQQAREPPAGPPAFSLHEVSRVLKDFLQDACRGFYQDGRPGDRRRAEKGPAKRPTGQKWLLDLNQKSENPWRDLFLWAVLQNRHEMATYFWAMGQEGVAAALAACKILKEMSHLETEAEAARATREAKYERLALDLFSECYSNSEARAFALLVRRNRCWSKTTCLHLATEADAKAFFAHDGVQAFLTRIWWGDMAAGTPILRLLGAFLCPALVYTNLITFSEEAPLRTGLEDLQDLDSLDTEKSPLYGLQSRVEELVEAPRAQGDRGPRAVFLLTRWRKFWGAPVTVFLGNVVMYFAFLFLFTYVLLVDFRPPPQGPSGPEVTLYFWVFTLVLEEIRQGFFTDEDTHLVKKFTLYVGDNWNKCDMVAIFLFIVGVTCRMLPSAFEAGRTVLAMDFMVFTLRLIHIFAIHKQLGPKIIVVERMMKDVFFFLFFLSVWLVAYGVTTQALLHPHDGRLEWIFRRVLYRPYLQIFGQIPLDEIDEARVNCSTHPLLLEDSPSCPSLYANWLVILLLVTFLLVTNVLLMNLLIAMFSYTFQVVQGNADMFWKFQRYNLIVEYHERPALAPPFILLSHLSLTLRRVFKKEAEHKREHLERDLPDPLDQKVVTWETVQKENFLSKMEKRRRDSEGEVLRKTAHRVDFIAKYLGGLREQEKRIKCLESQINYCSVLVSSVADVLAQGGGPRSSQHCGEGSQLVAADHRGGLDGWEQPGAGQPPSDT

[4] = target: Transient receptor potential cation channel subfamily M member 4 (Homo sapiens, UniProt Q8TD43); assay: Agonist activity at human TRPM4 expressed in CHO-K1 cells assessed as increase in relative fluorescence unit by measuring membrane potential by FLIPR assay; type: cell-based
[5] = Clearance in C57BL/6 mouse at 1 mg/kg, iv; type: ADME, organism-based; details: in vivo
[6] = Volume of distribution at steady state in C57BL/6 mouse at 1 mg/kg, iv; type: ADME, organism-based; details: in vivo
[7] = Half-life in C57BL/6 mouse at 1 mg/kg, iv; type: ADME, organism-based; details: in vivo
[8] = Half-life in C57BL/6 mouse at 10 mg/kg, po; type: ADME, organism-based; details: in vivo
[9] = Half-life in C57BL/6 mouse at 30 mg/kg, po; type: ADME, organism-based; details: in vivo
[10] = Half-life in C57BL/6 mouse at 300 mg/kg, po; type: ADME, organism-based; details: in vivo
[11] = Cmax in C57BL/6 mouse at 10 mg/kg, po; type: ADME, organism-based; parameters: dose 10 mg/kg, route po; details: in vivo
[12] = Cmax in C57BL/6 mouse at 30 mg/kg, po; type: ADME, organism-based; parameters: dose 30 mg/kg, route po; details: in vivo
[13] = AUC (0 to infinity) in C57BL/6 mouse at 10 mg/kg, po; type: ADME, organism-based; parameters: time infinity, dose 10 mg/kg, route po; details: in vivo
[14] = Cmax in C57BL/6 mouse at 100 mg/kg, po; type: ADME, organism-based; parameters: dose 100 mg/kg, route po; details: in vivo
[15] = Cmax in C57BL/6 mouse at 300 mg/kg, po; type: ADME, organism-based; parameters: dose 300 mg/kg, route po; details: in vivo
[16] = AUC (0 to infinity) in C57BL/6 mouse at 1 mg/kg, iv; type: ADME, organism-based; parameters: time infinity, dose 1 mg/kg, route iv; details: in vivo
[17] = AUC (0 to infinity) in C57BL/6 mouse at 30 mg/kg, po; type: ADME, organism-based; parameters: time infinity, dose 30 mg/kg, route po; details: in vivo
[18] = AUC (0 to infinity) in C57BL/6 mouse at 100 mg/kg, po; type: ADME, organism-based; parameters: time infinity, dose 100 mg/kg, route po; details: in vivo
[19] = AUC (0 to infinity) in C57BL/6 mouse at 300 mg/kg, po; type: ADME, organism-based; parameters: time infinity, dose 300 mg/kg, route po; details: in vivo
[20] = Oral bioavailability in C57BL/6 mouse at 10 mg/kg; type: ADME, organism-based; details: in vivo
[21] = Oral bioavailability in C57BL/6 mouse at 30 mg/kg; type: ADME, organism-based; details: in vivo
[22] = Oral bioavailability in C57BL/6 mouse at 100 mg/kg; type: ADME, organism-based; details: in vivo
[23] = Oral bioavailability in C57BL/6 mouse at 300 mg/kg; type: ADME, organism-based; details: in vivo
[24] = Solubility of the compound in JP1 solution at pH 1.2; type: physicochemical
[25] = Solubility of the compound in JP2 solution at pH 6.8; type: physicochemical
[26] = Apparent permeability across apical to basolateral side in human Caco-2 cells; type: ADME, cell-based
[27] = Apparent permeability across basolateral to apical side in human Caco-2 cells; type: ADME, cell-based
[28] = Unbound fraction in human plasma; type: ADME, cell-free
[29] = Unbound fraction in mouse plasma; type: ADME, cell-free
[30] = Area under […] in C57BL/6 mouse at 30 mg/kg administered twice a day; type: ADME, organism-based; details: in vivo
[31] = Area under […] in C57BL/6 mouse at 100 mg/kg administered twice a day; type: ADME, organism-based; details: in vivo
[32] = Area under […] in C57BL/6 mouse at 300 mg/kg administered twice a day; type: ADME, organism-based; details: in vivo
[33] = target: T2, Transient receptor potential cation channel subfamily M member 5 (Mus musculus, UniProt Q9JJH7); assay: Agonist activity at mouse TRPM5 expressed in CHO-K1 cells; type: cell-based
T2 sequence (Q9JJH7 whole entry): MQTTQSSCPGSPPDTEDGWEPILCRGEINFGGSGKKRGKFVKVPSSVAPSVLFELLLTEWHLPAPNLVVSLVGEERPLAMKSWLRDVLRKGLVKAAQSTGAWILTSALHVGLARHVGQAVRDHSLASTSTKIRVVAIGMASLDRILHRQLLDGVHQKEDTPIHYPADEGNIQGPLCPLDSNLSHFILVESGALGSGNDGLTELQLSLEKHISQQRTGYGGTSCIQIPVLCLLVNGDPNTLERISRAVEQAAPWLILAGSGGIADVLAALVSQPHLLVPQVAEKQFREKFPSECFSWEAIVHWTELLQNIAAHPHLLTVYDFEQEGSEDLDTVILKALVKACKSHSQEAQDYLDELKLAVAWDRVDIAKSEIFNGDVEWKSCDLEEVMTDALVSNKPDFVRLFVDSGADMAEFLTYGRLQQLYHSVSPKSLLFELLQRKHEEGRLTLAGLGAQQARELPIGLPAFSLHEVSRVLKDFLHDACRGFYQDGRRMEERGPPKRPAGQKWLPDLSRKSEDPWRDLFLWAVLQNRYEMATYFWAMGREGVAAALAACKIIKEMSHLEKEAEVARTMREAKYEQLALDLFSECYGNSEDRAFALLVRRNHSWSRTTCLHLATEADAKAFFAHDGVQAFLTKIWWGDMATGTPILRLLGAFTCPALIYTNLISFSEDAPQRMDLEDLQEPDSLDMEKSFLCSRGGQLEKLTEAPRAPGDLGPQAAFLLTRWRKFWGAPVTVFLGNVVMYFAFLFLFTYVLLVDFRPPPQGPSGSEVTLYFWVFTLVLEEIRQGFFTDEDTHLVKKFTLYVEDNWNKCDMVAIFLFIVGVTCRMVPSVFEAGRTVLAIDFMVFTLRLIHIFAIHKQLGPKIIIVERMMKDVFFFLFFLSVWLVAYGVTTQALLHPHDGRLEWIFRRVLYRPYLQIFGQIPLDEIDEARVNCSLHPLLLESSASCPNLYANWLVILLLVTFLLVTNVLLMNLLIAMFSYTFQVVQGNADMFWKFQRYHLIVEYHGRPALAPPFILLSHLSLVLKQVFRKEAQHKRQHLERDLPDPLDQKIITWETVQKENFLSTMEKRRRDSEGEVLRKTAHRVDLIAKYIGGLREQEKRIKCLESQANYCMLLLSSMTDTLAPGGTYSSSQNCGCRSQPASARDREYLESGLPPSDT

[34] = target: Transient receptor potential cation channel subfamily V member 1 (Homo sapiens, UniProt Q8NER1); assay: Agonist activity at human TRPV1
[35] = target: Transient receptor potential cation channel subfamily M member 8 (Homo sapiens, UniProt Q7Z2W7); assay: Agonist activity at human TRPM8 expressed in HEK cells assessed as increase in intracellular calcium level measured for 5 mins by FLIPR assay; type: cell-based
[36] = target: Transient receptor potential cation channel subfamily A member 1 (Homo sapiens, UniProt O75762); assay: Agonist activity at human TRPA1 expressed in HEK cells assessed as increase in intracellular calcium level measured for 5 mins by FLIPR assay; type: cell-based
[37] = target: Transient receptor potential cation channel subfamily V member 4 (Homo sapiens, UniProt Q9HBA0); assay: Agonist activity at human TRPV4
[38] = Solubility of the compound in JP1 solution at pH 1.2 measured after 3 hrs by UHPLC analysis; type: physicochemical
[39] = Solubility of the compound in JP2 solution at pH 6.8 measured after 3 hrs by UHPLC analysis; type: physicochemical
[40] = tested on: MDR1 (multidrug resistance mutation-1 as written); assay: Apparent permeability across apical to basolateral side in LLC-PK1 cells overexpressing multidrug resistance mutation-1; type: ADME, cell-based, Sus scrofa; details: pig
[41] = tested on: MDR1 (multidrug resistance mutation-1 as written); assay: Apparent permeability across basolateral to apical side in LLC-PK1 cells overexpressing multidrug resistance mutation-1; type: ADME, cell-based, Sus scrofa; details: pig

Transient receptor potential cation channel subfamily M member 4, sequence (Q8TD43 whole entry): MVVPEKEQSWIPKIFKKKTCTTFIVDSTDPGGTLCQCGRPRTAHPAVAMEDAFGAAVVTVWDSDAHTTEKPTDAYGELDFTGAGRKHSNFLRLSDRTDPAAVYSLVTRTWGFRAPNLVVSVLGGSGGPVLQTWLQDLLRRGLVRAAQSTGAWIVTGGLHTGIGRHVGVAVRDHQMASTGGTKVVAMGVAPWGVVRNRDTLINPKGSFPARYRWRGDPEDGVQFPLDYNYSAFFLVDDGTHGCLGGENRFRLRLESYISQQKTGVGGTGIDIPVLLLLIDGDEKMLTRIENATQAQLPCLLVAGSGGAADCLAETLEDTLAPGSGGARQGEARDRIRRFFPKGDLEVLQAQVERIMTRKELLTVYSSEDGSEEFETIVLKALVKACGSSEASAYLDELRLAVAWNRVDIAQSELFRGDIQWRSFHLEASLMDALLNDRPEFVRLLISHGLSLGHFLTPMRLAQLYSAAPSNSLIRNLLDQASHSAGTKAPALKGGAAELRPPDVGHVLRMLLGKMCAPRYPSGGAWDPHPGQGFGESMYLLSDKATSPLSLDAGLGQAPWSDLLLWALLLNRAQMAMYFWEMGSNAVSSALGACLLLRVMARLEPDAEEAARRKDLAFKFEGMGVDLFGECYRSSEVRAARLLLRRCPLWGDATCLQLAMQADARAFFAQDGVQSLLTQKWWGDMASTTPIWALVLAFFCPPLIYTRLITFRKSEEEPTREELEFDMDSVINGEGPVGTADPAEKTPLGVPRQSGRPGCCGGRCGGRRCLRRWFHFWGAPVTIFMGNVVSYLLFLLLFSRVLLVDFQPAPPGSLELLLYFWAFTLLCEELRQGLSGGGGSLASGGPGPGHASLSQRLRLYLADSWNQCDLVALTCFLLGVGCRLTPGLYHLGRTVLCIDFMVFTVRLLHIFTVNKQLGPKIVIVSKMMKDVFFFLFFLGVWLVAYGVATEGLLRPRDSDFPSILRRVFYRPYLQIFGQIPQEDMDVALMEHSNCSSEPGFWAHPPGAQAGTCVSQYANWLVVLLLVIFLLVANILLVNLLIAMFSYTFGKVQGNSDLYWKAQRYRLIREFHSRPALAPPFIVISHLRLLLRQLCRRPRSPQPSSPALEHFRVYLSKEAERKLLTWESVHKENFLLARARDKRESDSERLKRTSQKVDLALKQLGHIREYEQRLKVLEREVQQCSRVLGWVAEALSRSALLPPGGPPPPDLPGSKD
Transient receptor potential cation channel subfamily M member 8, sequence (Q7Z2W7 whole entry): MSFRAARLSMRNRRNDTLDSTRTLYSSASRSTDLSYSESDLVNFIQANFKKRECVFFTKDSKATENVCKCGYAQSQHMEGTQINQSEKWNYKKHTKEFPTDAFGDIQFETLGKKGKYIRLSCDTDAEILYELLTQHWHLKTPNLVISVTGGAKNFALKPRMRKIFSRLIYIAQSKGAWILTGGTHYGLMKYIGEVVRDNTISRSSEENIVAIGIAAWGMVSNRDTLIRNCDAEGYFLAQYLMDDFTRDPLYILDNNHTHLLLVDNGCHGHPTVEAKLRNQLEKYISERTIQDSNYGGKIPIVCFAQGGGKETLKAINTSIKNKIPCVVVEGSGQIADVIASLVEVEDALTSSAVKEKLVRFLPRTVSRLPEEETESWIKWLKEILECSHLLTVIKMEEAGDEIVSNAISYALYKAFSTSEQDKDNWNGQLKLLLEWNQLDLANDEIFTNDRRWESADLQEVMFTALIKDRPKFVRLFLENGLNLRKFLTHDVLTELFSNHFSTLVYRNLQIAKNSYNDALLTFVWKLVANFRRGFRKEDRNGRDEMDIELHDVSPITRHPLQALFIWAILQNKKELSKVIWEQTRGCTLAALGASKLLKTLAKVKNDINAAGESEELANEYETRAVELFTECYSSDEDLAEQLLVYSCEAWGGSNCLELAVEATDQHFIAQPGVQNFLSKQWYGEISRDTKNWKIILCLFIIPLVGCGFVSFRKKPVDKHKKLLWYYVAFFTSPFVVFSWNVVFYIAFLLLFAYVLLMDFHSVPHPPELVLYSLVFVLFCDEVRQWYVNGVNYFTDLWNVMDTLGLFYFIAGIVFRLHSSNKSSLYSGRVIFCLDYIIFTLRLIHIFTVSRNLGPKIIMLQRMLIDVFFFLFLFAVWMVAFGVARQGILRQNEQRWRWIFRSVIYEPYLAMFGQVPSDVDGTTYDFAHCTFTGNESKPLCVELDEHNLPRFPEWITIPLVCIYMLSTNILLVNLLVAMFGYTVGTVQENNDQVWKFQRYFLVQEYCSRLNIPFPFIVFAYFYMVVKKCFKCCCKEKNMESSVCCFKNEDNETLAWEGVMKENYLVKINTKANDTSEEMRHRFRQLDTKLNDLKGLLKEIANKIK
Transient receptor potential cation channel subfamily A member 1, sequence (O75762 whole entry): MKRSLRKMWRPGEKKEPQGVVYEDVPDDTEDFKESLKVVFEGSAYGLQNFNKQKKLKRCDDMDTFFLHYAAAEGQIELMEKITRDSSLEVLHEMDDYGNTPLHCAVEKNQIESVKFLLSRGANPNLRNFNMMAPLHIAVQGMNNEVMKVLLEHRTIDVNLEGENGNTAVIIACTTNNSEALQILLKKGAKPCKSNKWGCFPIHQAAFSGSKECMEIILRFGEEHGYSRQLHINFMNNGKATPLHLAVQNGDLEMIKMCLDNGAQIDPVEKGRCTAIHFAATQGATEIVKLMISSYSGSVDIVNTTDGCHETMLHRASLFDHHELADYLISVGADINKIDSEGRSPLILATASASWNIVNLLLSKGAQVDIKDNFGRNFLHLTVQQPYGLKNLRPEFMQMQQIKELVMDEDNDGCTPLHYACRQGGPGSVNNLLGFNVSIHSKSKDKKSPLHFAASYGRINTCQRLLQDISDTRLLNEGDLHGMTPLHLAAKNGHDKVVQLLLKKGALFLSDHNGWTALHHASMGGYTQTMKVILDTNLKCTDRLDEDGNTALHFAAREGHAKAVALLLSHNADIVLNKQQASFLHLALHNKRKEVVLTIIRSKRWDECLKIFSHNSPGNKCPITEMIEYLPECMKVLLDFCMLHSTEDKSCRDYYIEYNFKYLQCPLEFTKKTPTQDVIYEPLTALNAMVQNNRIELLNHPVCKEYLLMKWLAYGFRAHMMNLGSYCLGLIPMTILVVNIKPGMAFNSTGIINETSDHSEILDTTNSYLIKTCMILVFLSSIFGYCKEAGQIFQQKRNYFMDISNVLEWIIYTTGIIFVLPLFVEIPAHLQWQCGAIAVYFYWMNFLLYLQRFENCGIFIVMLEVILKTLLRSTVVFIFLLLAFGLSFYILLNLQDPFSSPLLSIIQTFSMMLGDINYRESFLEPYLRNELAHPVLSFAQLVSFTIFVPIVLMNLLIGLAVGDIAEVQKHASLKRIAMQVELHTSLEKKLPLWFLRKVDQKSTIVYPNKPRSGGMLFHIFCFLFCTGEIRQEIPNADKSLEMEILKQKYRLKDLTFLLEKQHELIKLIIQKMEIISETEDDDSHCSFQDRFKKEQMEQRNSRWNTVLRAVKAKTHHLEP
Transient receptor potential cation channel subfamily V member 1, sequence (Q8NER1 whole entry): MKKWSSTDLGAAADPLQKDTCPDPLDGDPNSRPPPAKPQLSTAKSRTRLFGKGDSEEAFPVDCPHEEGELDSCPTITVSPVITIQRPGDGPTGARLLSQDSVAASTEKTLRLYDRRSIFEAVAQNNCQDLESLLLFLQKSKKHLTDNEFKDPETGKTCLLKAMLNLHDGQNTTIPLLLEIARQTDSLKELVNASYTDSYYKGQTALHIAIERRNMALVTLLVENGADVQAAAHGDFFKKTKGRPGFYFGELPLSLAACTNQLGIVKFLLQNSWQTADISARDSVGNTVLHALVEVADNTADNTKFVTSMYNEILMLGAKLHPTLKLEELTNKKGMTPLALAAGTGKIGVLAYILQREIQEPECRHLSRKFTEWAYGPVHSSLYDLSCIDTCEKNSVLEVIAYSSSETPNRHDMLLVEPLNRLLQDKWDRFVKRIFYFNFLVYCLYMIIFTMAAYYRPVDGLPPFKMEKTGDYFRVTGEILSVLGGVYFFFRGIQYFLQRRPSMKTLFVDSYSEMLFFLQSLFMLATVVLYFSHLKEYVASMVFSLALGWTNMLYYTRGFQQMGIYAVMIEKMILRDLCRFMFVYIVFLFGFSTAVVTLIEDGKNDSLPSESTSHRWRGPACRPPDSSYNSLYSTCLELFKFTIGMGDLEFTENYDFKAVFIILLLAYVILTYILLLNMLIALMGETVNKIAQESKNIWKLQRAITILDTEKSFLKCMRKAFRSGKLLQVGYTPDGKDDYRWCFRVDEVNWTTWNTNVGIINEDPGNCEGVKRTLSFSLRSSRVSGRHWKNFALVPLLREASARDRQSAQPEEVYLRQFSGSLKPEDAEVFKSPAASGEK

- half-life ([1]; C57BL/6, mouse): 5.1 h
- half-life ([2]; liver microsomes): 1.53 h
- EC50 [3]: 0.126 µM
- clearance [5]: 92.3 mL/min/kg
- Vd ([6]; C57BL/6, mouse, read-out: Vdss): 4.41 L/kg
- half-life ([7]; C57BL/6, mouse): 1.1 h
- half-life ([8]; C57BL/6, mouse): 2.9 h
- t1/2 ([9]; mouse, po, 30 mg/kg): 4.4 h
- half-life [10]: 5.5 h
- Cmax [11]: 290 ng/mL
- Cmax [12]: 700 ng/mL
- AUC [13]: 848 ng·h/mL
- Cmax [14]: 3667 ng/mL
- Cmax [15]: 6020 ng/mL
- AUC(0-inf) ([16]; C57BL/6, mouse): 181 ng·h/mL
- AUC [17]: 3676 ng·h/mL
- AUC [18]: 28050 ng·h/mL
- AUC(0-inf) [19]: 49400 ng·h/mL
- F [20]: 44%
- F [21]: 74%
- F [22]: 100%
- bioavailability [23]: 100%
- solubility [24]: 25300 µg/mL (≈ 79.7 mM)
- solubility [25]: 201 µg/mL (≈ 0.635 mM)
- Papp A→B [26]: 10.3 ×10⁻⁶ cm/s
- Papp B→A [27]: 15.4 ×10⁻⁶ cm/s
- fraction unbound [28]: 0.121
- fraction unbound [29]: 0.115
- AURC [30]: 6.7 h
- AURC [31]: 12.3 h
- AURC [32]: 17.3 h
SMILES: N#Cc1ccc2c(c1)C[C@H](CO)N[C@@H]2c1cc(F)cc(Cl)c1 (racemic)
- EC50 [4]: 11.5 µM

- t1/2 ([1]; mouse, po, 100 mg/kg): 6.3 h
- t1/2 ([2]; microsomes): 1.48 h
- EC50 [3]: 0.0794 µM
- Vdss ([6]; mouse, iv, 1 mg/kg): 3.507 L/kg
- t1/2 ([7]; mouse, iv, 1 mg/kg): 0.8 h
- t1/2 ([8]; mouse, po, 10 mg/kg): 4.3 h
- half-life ([9]; C57BL/6, mouse): 5.4 h
- Cmax [11]: 101 ng/mL
- Cmax [12]: 301 ng/mL
- AUC [13]: 395 ng·h/mL
- Cmax [14]: 1396 ng/mL
- AUC ([16]; mouse): 177.1 ng·h/mL
- AUC [17]: 1716 ng·h/mL
- AUC [18]: 8591 ng·h/mL
- F [20]: 16.6%
- F [21]: 20.3%
- F [22]: 49%
- EC50 [33]: 0.251 µM
- EC50 [34]: > 15.8 µM
- EC50 [35]: > 15.8 µM
- EC50 [36]: > 15.8 µM
- EC50 [37]: > 15.8 µM
- solubility at 3 h [38]: 3500 µg/mL (≈ 11 mM)
- solubility at 3 h [39]: 43 µg/mL (≈ 0.136 mM)
- Papp A→B [40]: 26.6 ×10⁻⁶ cm/s
- Papp B→A [41]: 13.7 ×10⁻⁶ cm/s
SMILES: N#Cc1ccc2c(c1)C[C@H](CO)N[C@@H]2c1cc(F)cc(Cl)c1
- EC50 [4]: 52.5 µM
